Patent US9371330B2, “Substituted pyrazino[1,2-a]pyrimidines useful as CBP/catenin antagonists for enhancing asymmetric division of somatic stem cells” (University of Southern California, priority 2011, dated 2016)
“Also recorded” adds a separate entry of the source.

Legend:
[1] = test system: NOD/SCIDIL2R gamma-/- mice; assay: leukemia mouse model: hair growth and wound healing; type: in vivo; settings: ICG-001 50 mg/kg/d with VDL vs VDL only, 50 mg/kg/day
Description: NOD/SCIDIL2R gamma−/− mice were shaved and sublethally irradiated prior intravenous injection of 50,000 cells per animal. Leukemic animals were treated with a combination of intraperitoneally administered vincristine/dexamethasone/L-Aspariginase (VDL) and ICG-001 (50 mg/kg/d), which was delivered via subcutaneous osmotic pumps to ensure stable plasma levels, with VDL only as a control for 20 days. The animals were checked periodically for survival, hair growth, and wound healing.

[2] = test system: MDA-MB-231 cells; assay: MDA-MB-231 stem/tumor initiating cell markers; type: cell-based
Source text: This phenotype CD44^hi, CD24^lo has been associated with a subpopulation of cells that behave like a breast cancer stem/tumor initiating cell population (51). […] Beyond reduction of survivin message level, there is a gene expression profile consistent with the occurrence of a mesenchymal to epithelial (MET) transition (i.e. decreased expression of twist, vimentin and S100A4 and an increase in E-cadherin expression). Recently, there have been a number of papers, which have correlated epithelial to mesenchymal transition (EMT) with a CSC phenotype (52). EMT is a normal physiologic process that is important in development and in adults, for example in wound healing, but pathophysiologically is associated with tumor metastasis and organ fibrosis (see later discussion on fibrosis). Specific CBP/catenin antagonists can reverse this aberrant EMT in vivo (EMT also plays a critical role in the skin in hair loss etc. J Dermatol Sci. 2011 January; 61(1):7-13. Epub 2010 Dec. 5; epithelial-mesenchymal transition (EMT) plays important roles not only in the morphogenesis but also in wound repair, tissue fibrosis and cancer progression. Recently, regulatory mechanism of this process has been elaborately elucidated. EMT can be a new therapeutic target for treating skin ulcer, fibrosing alopecia, and malignant cutaneous cancers, including squamous cell carcinoma and melanoma).

In the case of `O=C1[C@H](Cc2ccc(O)cc2)N2C(=O)CCN(C(=O)NCc3ccccc3)[C@H]2CN1Cc1cccc2ccccc12` [ICG-001], the “hair growth on shaved area” value ([1]; within two weeks) is reported as “had regrown their hair; also recorded: substantial hair growth covering the entire previously shaved area”, the “healing of pump insertion wounds” value [1] is reported as “had substantial improved; also recorded: heal quicker” and the CD44 expression [2] is reported as “decreasing CD44 expression”. The “side population (SP) and ALDH activity” value [2] was “dramatically decreases the side population (SP) and ALDH activity” and the “cell surface CD24 expression” value ([2]; 24 h) was “significantly increased the expression of cell surface CD24”.
